Laboratory results as given in ChEMBL document CHEMBL5120901, “Batatasin III, a Constituent of Dendrobium scabrilingue, Improves Murine Pain-like Behaviors with a Favorable CNS Safety Profile” (J Nat Prod, 2022).
The source made the active and inactive calls. The calls are words filed in the database; no cut-off is given here.

Experiments:
[1] = tested on: BV-2; test: Anti-inflammartory activity against LPS-activated […] cells assessed as reduction in TNF-alpha levels at 50 uM pretreated with compound for 1 hr followed by co-incubation with LPS for 24 hrs by ELISA; format: functional, cell-based; settings: Mus musculus, time 25.0 hrs
[2] = tested on: BV-2; test: Anti-inflammatory activity in […] cells assessed as inhibition of LPS-induced NO production at 50 uM pretreated with compound for 1 hr followed by coincubation with LPS for 24 hrs by Griess reagent based analysis; format: functional, cell-based; settings: Mus musculus, time 25.0 hrs
[3] = tested on: BV-2; test: Anti-inflammartory activity against LPS-activated […] cells assessed as reduction in IL-6 levels at 50 uM pretreated with compound for 1 hr followed by co-incubation with LPS for 24 hrs by ELISA; format: functional, cell-based; settings: Mus musculus, time 25.0 hrs
[4] = CNS toxicity in naive ICR mouse assessed as reduction in spontaneous locomotor activity by measuring reduction in climbing behaviour at 5 mg/kg, ip and measured for 2 hrs by LABORAS automated behavioral analysis; format: organism-based; settings: in vivo
[5] = CNS toxicity in naive ICR mouse assessed as reduction in spontaneous locomotor activity by measuring reduction in climbing behaviour at 5 mg/kg, ip and measured for 30 mins by LABORAS automated behavioral analysis; format: organism-based; settings: in vivo, 0.5 h
[6] = CNS toxicity in naive ICR mouse assessed as reduction in rotarod latency time at 5 mg/kg, ip measured at <240 mins by rotarod test; format: organism-based; settings: in vivo, 4 h
[7] = CNS toxicity in naive ICR mouse assessed as reduction in spontaneous locomotor activity at 5 mg/kg, ip and measured for 2 hrs by LABORAS automated behavioral analysis; format: organism-based; settings: in vivo
[8] = CNS toxicity in naive ICR mouse assessed as reduction in spontaneous locomotor activity by measuring increase in immobility behaviour at 5 mg/kg, ip and measured for 30 mins by LABORAS automated behavioral analysis; format: organism-based; settings: in vivo, 0.5 h
[9] = CNS toxicity in naive ICR mouse assessed as motor coordination at 5 mg/kg, ip measured after 240 mins by rotarod test; format: organism-based; settings: in vivo, 4 h
[10] = CNS toxicity in naive ICR mouse assessed as reduction in spontaneous locomotor activity at 5 mg/kg, ip and measured for 30 mins by LABORAS automated behavioral analysis; format: organism-based; settings: in vivo, 0.5 h
[11] = CNS toxicity in naive ICR mouse assessed as reduction in spontaneous locomotor activity by measuring reduction in rearing behaviour at 5 mg/kg, ip and measured for 2 hrs by LABORAS automated behavioral analysis; format: organism-based; settings: in vivo
[12] = CNS toxicity in naive ICR mouse assessed as reduction in spontaneous locomotor activity by measuring increase in immobility behaviour at 5 mg/kg, ip and measured for 2 hrs by LABORAS automated behavioral analysis; format: organism-based; settings: in vivo
[13] = CNS toxicity in naive ICR mouse assessed as reduction in spontaneous locomotor activity by measuring reduction in rearing behaviour at 5 mg/kg, ip and measured for 30 mins by LABORAS automated behavioral analysis; format: organism-based; settings: in vivo, 0.5 h
[14] = CNS toxicity in naive ICR mouse assessed as reduction in spontaneous locomotor activity by measuring reduction in animal's movement speed in arena at 5 mg/kg, ip and measured for 30 mins by LABORAS automated behavioral analysis; format: organism-based; settings: in vivo, 0.5 h
[15] = CNS toxicity in naive ICR mouse assessed as reduction in spontaneous locomotor activity by measuring reduction in distance travelled in arena at 5 mg/kg, ip and measured for 30 mins by LABORAS automated behavioral analysis; format: organism-based; settings: in vivo, 0.5 h
[16] = CNS toxicity in naive ICR mouse assessed as reduction in spontaneous locomotor activity by measuring reduction in distance travelled in arena at 5 mg/kg, ip and measured for 2 hrs by LABORAS automated behavioral analysis; format: organism-based; settings: in vivo
[17] = CNS toxicity in naive ICR mouse assessed as reduction in spontaneous locomotor activity by measuring reduction in animal's movement speed in arena at 5 mg/kg, ip and measured for 2 hrs by LABORAS automated behavioral analysis; format: organism-based; settings: in vivo

Row | Structure (SMILES) | Activity [1] | Activity [2] | Activity [3] | Activity [4] | Activity [5] | Activity [6] | Activity [7] | Activity [8] | Activity [9] | Activity [10] | Activity [11] | Activity [12] | Activity [13] | Activity [14] | Activity [15] | Activity [16] | Activity [17]
1 | CN(C)c1ccc(O)c2c1C[C@H]1C[C@H]3[C@H](N(C)C)C(O)=C(C(N)=O)C(=O)[C@@]3(O)C(O)=C1C2=O | Active | Active | Active |  |  |  |  |  |  |  |  |  |  |  |  |  | 
2 | CN(C)CCCN1c2ccccc2Sc2ccc(Cl)cc21 [CHLORPROMAZINE] |  |  |  | Toxic | Toxic | Toxic | Toxic | Toxic | Non-Toxic | Toxic | Toxic | Toxic | Toxic | Toxic | Toxic | Toxic | Toxic
